Assay results: patent publication US8841309B2, “Substituted pyrazines and their use in the treatment of disease” (Boehringer Ingelheim International GmbH, priority 2012, dated 2014)
Where a name gives a salt, the structure may show the parent alone.

Each molecule was assayed against T1, ENaC (Mus musculus, UniProt Q61180+Q9WU38+Q9WU39) (assay: Ussing chamber: short circuit current (I_sc) in mouse kidney M-1 cells, amiloride-sensitive). Conditions: compound applied to apical solution, 37° C.
T1 construct: Mouse kidney M-1 cells were cultivated in DMEM containing 5% FCS and 5 μM dexamethasone; endogenous in cells; host or cells: mouse kidney M-1 cells
T1 sequence (Q61180 1-699): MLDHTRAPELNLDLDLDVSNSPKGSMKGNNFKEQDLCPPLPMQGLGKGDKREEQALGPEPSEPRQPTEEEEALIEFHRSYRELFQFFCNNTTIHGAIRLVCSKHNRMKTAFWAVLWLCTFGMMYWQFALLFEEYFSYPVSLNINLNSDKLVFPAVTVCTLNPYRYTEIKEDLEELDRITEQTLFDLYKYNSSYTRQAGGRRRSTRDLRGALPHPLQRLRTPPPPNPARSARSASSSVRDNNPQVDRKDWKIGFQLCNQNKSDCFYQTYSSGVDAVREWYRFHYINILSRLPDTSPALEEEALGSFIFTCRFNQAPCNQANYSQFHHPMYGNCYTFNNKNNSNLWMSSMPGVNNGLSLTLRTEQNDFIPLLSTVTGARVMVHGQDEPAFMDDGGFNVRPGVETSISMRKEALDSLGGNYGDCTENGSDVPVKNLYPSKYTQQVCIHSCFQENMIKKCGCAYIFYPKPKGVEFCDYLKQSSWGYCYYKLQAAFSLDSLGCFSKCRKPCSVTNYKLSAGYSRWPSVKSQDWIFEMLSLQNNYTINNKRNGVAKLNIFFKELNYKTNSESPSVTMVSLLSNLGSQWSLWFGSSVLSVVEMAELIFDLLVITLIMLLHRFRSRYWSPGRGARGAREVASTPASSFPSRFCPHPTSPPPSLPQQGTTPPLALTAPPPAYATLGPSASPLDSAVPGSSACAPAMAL
T1 sequence (Q9WU38 1-638): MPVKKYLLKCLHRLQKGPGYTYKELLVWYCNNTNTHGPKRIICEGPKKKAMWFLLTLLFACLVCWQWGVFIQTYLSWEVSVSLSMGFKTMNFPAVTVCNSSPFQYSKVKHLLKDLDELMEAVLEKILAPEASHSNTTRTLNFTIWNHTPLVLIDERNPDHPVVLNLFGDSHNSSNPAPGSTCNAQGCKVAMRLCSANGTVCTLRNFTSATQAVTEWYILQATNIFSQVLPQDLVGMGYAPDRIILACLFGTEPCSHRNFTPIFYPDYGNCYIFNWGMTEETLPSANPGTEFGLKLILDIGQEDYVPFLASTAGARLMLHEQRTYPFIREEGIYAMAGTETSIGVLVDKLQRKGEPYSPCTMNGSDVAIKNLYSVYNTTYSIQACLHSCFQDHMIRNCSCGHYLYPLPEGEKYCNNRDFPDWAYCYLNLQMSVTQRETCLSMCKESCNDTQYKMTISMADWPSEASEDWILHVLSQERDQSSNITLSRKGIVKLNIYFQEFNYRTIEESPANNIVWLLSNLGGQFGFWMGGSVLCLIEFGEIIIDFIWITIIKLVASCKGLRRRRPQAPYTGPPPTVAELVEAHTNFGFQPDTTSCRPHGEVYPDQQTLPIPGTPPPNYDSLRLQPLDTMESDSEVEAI
T1 sequence (Q9WU39 1-655): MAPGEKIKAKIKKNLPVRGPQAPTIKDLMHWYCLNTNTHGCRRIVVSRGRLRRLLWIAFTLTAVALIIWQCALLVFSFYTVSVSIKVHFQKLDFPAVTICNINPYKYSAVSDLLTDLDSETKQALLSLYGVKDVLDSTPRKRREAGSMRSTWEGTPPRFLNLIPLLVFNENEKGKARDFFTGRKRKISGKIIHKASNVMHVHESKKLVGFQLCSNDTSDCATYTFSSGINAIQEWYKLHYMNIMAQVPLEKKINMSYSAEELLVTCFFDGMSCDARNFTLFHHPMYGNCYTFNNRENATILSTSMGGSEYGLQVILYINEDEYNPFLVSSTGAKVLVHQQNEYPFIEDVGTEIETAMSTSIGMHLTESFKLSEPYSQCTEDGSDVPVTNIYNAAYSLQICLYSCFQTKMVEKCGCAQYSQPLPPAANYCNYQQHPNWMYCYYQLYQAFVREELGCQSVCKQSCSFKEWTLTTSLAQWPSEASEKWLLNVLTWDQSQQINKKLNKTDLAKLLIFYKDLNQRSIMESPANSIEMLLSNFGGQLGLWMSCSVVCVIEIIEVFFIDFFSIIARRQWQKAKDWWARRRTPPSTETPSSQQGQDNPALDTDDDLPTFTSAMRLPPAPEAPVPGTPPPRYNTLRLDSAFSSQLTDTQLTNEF
Format: cell-based
Protocol: Ussing Chamber: Mouse kidney M-1 cells were cultivated in DMEM containing 5% FCS and 5 μM dexamethasone for 10 to 12 days on polyester transwell filters. Filters were inserted into a teflon-coated well-plate which fit into the in-house ussing chamber system. Prior to measurement the medium of M-1 cells was replaced with Caco-2 transport buffer (Invitrogen, Germany). During measurements, the Ussing chamber temperature was kept at 37° C. Short circuit currents (I_sc) were measured in the voltage-clamp mode using an in-house built amplifier (Boehringer Ingelheim, Biberach) with the software package Lab View for data acquisition and analysis. The transepithelial electrical resistance (TEER) was determined by the application of voltage steps of ±5 mV every 5 sec. Compounds were administered at a final concentration of 3 μM or at increasing concentrations (1-3-10 μM) to the apical solution. At the end of each experiment the amiloride sensitive I_SC was measured by adding 3 μM amiloride to the apical compartment. Results are expressed as inhibition in percent of the amiloride effect or as IC50.

Question: For `CSc1cccc(C[N+]23CCC(CC2)[C@H](NC(N)=NC(=O)c2nc(Cl)c(N)nc2N)C3)c1` [Example 56], which IC50 is on record?
Answer: 0.012 µM

Question: With `CCNC(=O)C[N+]1(C)CCC[C@H](N/C(N)=N/C(=O)c2nc(Cl)c(N)nc2N)C1` (mixture of isomers) [Example 70.6] as the molecule, how does the IC50 read?
Answer: 0.046 µM

Question: `C[N+]1(CC(=O)NCc2ccc(Cl)cc2)CCC[C@@H](N/C(N)=N/C(=O)c2nc(Cl)c(N)nc2N)C1` (mixture of isomers) [Example 70.5] was tested. Which IC50 did it give?
Answer: 0.045 µM

Question: `COC(=O)c1ccccc1NC(=O)C[N+]1(C)CCC(NC(N)=NC(=O)c2nc(Cl)c(N)nc2N)CC1` (stereo not drawn) [Example 72.3] was tested. Which IC50 did it give?
Answer: 0.022 µM

Question: Which IC50 does the source give for `C[N+]1(CC(=O)Nc2cccc(F)c2)CCC[C@H](NC(N)=NC(=O)c2nc(Cl)c(N)nc2N)C1` (mixture of isomers) [Example 70.4] here?
Answer: 0.031 µM

Question: How did the IC50 turn out when `N/C(=N\C(=O)c1nc(Cl)c(N)nc1N)N[C@@H]1C[N+]2(Cc3ccccn3)CCC1CC2` [Example 13, (S)-3-[N′-(3,5-Diamino-6-chloro-pyrazine-2-carbonyl)-guanidino]-1-pyridin-2-ylmethyl-1-azoniabicyclo[2.2.2]octane chloride] was run?
Answer: 0.09 µM

Question: How did the IC50 turn out when `CSc1ccc(C[N+]23CCC(CC2)[C@H](NC(N)=NC(=O)c2nc(Cl)c(N)nc2N)C3)cc1` [Example 52] was run?
Answer: 0.067 µM

Question: `CCN(CC)C(=O)C[N+]12CCC(CC1)[C@H](NC(N)=NC(=O)c1nc(Cl)c(N)nc1N)C2` [Example 30] was tested. Which IC50 did it give?
Answer: 0.035 µM

Question: `CC(C)NC(=O)C[N+]12CCC(CC1)[C@H](NC(N)=NC(=O)c1nc(Cl)c(N)nc1N)C2` [Example 49] was tested. Which IC50 did it give?
Answer: 0.029 µM

Question: For `NC(=NC(=O)c1nc(Cl)c(N)nc1N)N[C@@H]1C[N+]2(Cc3cc(F)cc(F)c3)CCC1CC2` [Example 36], which IC50 is on record?
Answer: 0.03 µM

Question: With `N/C(=N\C(=O)c1nc(Cl)c(N)nc1N)NC1C[N+]2(Cc3ccccc3)CCC1CC2` (stereo not drawn) [Example 4, 1-Benzyl-3-[N′-(3,5-diamino-6-chloro-pyrazine-2-carbonyl)-guanidino]-1-azoniabicyclo[2.2.2]octane bromide] as the molecule, how does the IC50 read?
Answer: 0.043 µM

Question: With `NC(=NC(=O)c1nc(Cl)c(N)nc1N)N[C@@H]1C[N+]2(Cc3cccc(Cl)c3)CCC1CC2` [Example 27] as the molecule, how does the IC50 read?
Answer: 0.012 µM

Question: Which IC50 does the source give for `CCNC(=O)C(c1ccccc1)[N+]12CCC(CC1)[C@H](NC(=N)NC(=O)c1nc(Cl)c(N)nc1N)C2` (stereo partly drawn) [Example 68.1, (S)-3-[N′-(3,5-Diamino-6-chloro-pyrazine-2-carbonyl)-guanidino]-1-(ethylcarbamoyl-phenyl-methyl)-1-azonia-bicyclo[2.2.2]octane bromide] here?
Answer: 0.018 µM

Question: For `C[N+]1(CC(=O)NCc2ccc(Cl)cc2)CCC[C@H](N/C(N)=N/C(=O)c2nc(Cl)c(N)nc2N)C1` (mixture of isomers) [Example 71.1], which IC50 is on record?
Answer: 0.0306 µM

Question: `C[N+]1(Cc2ccccc2)CC[C@H](NC(N)=NC(=O)c2nc(Cl)c(N)nc2N)C1` (stereo partly drawn) [Example 71.2] was tested. Which IC50 did it give?
Answer: 0.113 µM

Question: For `N/C(=N\C(=O)c1nc(Cl)c(N)nc1N)N[C@H]1C[N+]2(Cc3ccccc3)CCC1CC2` [Example 5, (R)-1-Benzyl-3-[N′-(3,5-diamino-6-chloro-pyrazine-2-carbonyl)-guanidino]-1-azoniabicyclo[2.2.2]octane bromide], which IC50 is on record?
Answer: 0.46 µM

Question: With `NC(=NC(=O)c1nc(Cl)c(N)nc1N)N[C@@H]1C[N+]2(CC(=O)NCC3CCOCC3)CCC1CC2` [Example 76] as the molecule, how does the IC50 read?
Answer: 0.039 µM

Question: How did the IC50 turn out when `N/C(=N\C(=O)c1nc(Cl)c(N)nc1N)NC1C[N+]2(CC(=O)O)CCC1CC2` (stereo not drawn) [Example 1, 1-Carboxymethyl-3-[N′-(3,5-diamino-6-chloro-pyrazine-2-carbonyl)-guanidino]-1-azoniabicyclo[2.2.2]octane bromide] was run?
Answer: 0.468 µM

Question: Which IC50 does the source give for `N/C(=N\C(=O)c1nc(Cl)c(N)nc1N)NC1C[N+]2(CC(=O)Nc3ccccc3)CCC1CC2` (stereo not drawn) [Example 3, 3-[N′-(3,5-Diamino-6-chloro-pyrazine-2-carbonyl)-guanidino]-1-phenylcarbamoylmethyl-1-azoniabicyclo[2.2.2]octane chloride] here?
Answer: 0.026 µM

Question: Which IC50 does the source give for `C[N+]1(Cc2ccccc2)CCC(N/C(N)=N/C(=O)c2nc(Cl)c(N)nc2N)CC1` (stereo not drawn) [Example 70, 1-Benzyl-4-[N′-(3,5-diamino-6-chloro-pyrazine-2-carbonyl)-guanidino]-1-methyl-piperidinium chloride] here?
Answer: 0.106 µM

Question: Which IC50 does the source give for `N/C(=N\C(=O)c1nc(Cl)c(N)nc1N)N[C@@H]1C[N+]2(Cc3ccc(F)cc3)CCC1CC2` [Example 14, (S)-3-[N′-(3,5-Diamino-6-chloro-pyrazine-2-carbonyl)-guanidino]-1-(4-fluoro-benzyl)-1-azoniabicyclo[2.2.2]octane chloride] here?
Answer: 0.028 µM

Question: How did the IC50 turn out when `N=C(NC(=O)c1nc(Cl)c(N)nc1N)N[C@@H]1C[N+]2(CC(=O)N[C@@H](Cc3ccccc3)C(=O)O)CCC1CC2` [Example 73, (S)-1-[((S)-1-Carboxy-2-phenyl-ethylcarbamoyl)-methyl]-3-[N′-(3,5-diamino-6-chloro-pyrazine-2-carbonyl)-guanidino]-1-azonia-bicyclo[2.2.2]octane chloride hydrochloride] was run?
Answer: 0.004 µM

Question: With `COc1cccc(C[N+]23CCC(CC2)[C@H](NC(N)=NC(=O)c2nc(Cl)c(N)nc2N)C3)c1OC` [Example 37] as the molecule, how does the IC50 read?
Answer: 0.034 µM

Question: Which IC50 does the source give for `CC#CC[N+]12CCC(CC1)[C@H](NC(N)=NC(=O)c1nc(Cl)c(N)nc1N)C2` [Example 23] here?
Answer: 0.172 µM

Question: With `Cc1nc(C[N+]23CCC(CC2)[C@H](NC(N)=NC(=O)c2nc(Cl)c(N)nc2N)C3)cs1` [Example 31] as the molecule, how does the IC50 read?
Answer: 0.054 µM

Question: With `NC(=NC(=O)c1nc(Cl)c(N)nc1N)N[C@@H]1C[N+]2(CC(=O)NCc3ccccc3)CCC1CC2` [Example 34] as the molecule, how does the IC50 read?
Answer: 0.007 µM

Question: For `CC(C)(C)OC(=O)c1ccc(C[N+]23CCC(CC2)[C@H](NC(N)=NC(=O)c2nc(Cl)c(N)nc2N)C3)cc1` [Example 46], which IC50 is on record?
Answer: 0.267 µM

Question: How did the IC50 turn out when `CC(C)=CC[N+]12CCC(CC1)[C@H](N/C(N)=N/C(=O)c1nc(Cl)c(N)nc1N)C2` [Example 69, (S)-3-[N′-(3,5-Diamino-6-chloro-pyrazine-2-carbonyl)-guanidino]-1-(3-methyl-but-2-enyl)-1-azoniabicyclo[2.2.2]octane chloride] was run?
Answer: 0.188 µM

Question: With `CC(C)(C)OC(=O)C1CCN(C(=O)C[N+]23CCC(CC2)[C@H](NC(N)=NC(=O)c2nc(Cl)c(N)nc2N)C3)CC1` [Example 67, (S)-1-[2-(4-tert-butoxycarbonyl-piperidin-1-yl)-2-oxo-ethyl]-3-[N′-(3,5-diamino-6-chloro-pyrazine-2-carbonyl)-guanidino]-1-azonia-bicyclo[2.2.2]octane; chloride] as the molecule, how does the IC50 read?
Answer: 0.04 µM

Question: For `CN(Cc1ccccc1)C(=O)C[N+]1(C)CCC(NC(N)=NC(=O)c2nc(Cl)c(N)nc2N)CC1` (stereo not drawn) [Example 72.2], which IC50 is on record?
Answer: 0.076 µM
